Type in all cases: biochemical
Assay [1] deals with T1, human JAK3 (aa 795-1124) catalytic domain (Homo sapiens, UniProt P52333).
T1 construct: JAK3 (aa 795-1124); purchased Carna Biosciences; host or cells: baculovirus expression system (insect cells)
The assay is described as follows: In vitro JAK kinase assay (TR-FRET), JAK3. To be noted: ATP 0.6 μM, peptide 140 nM, 30 minutes at room temperature. As for the experimental part: (§1) Compounds were screened for their ability to inhibit JAK1, JAK2 and JAK3 using the assays as indicated below.
(§2) The catalytic domains of human JAK1 (aa 850-1154), JAK2 (aa 826-1132), JAK3 (aa 795-1124) and Tyk2 (aa 871-1187) were expressed as N-terminal GST-fusion proteins using a baculovirus expression system and were purchased from Carna Biosciences. The enzymatic activity was assayed using as substrate a biotinylated peptide, poly (GT)-Biotin (CisBio). The peptide concentration in the reactions was 60 nM for JAK1, 20 nM for JAK2, 140 nM for JAK3 and 50 nM for Tyk2. The degree of phosphorylation was detected by TR-FRET (time-resolved fluorescence energy transfer).
(§3) IC50s of compounds were measured for each kinase in a reaction mixture containing the enzyme, ATP and the peptide in 8 mM MOPS (pH 7.0), 10 mM MgCl2, 0.05% β-mercaptoethanol, 0.45 mg/ml BSA. The ATP concentration in the reactions was 3 μM for JAK1, 0.2 μM for JAK2, 0.6 μM for JAK3 and 1.8 μM for Tyk2. The enzymatic reactions took place for 30 minutes at room temperature. Then, the reactions were stopped with 20 μL of quench detection buffer (50 mM HEPES, 0.5 M KF, EDTA 0.25 M, 0.1% (w/v) BSA, pH 7.5) containing 0.115 μg/mL of anti-phosphoTyr (PT66)-Cryptate (CisBio) and a variable concentration of SA-XL665 (CisBio) to keep the SA-B ratio constant. Incubate for 3 h and read on Victor 2V spectrofluorometer (Perkin Elmer) set to read fluorescence resonance energy transfer.
In general terms: In TR-FRET formats the signal depends on donor and acceptor labels being close together.

Assay [2] deals with T2, human JAK2 (aa 826-1132) catalytic domain (Homo sapiens, UniProt O60674).
T2 construct: JAK2 (aa 826-1132); purchased Carna Biosciences; host or cells: baculovirus expression system (insect cells)
Kind of assay: In vitro JAK kinase assay (TR-FRET), JAK2. To be noted: ATP 0.2 μM, peptide 20 nM, 30 minutes at room temperature. As for the experimental part:
as §1, §2, §3

For assay [3], the target named is T3, human JAK1 (aa 850-1154) catalytic domain (Homo sapiens, UniProt P23458).
T3 construct: human JAK1 (aa 850-1154); purchased Carna Biosciences; host or cells: baculovirus expression system (insect cells)
The assay is described as follows: In vitro JAK kinase assay (TR-FRET), JAK1. To be noted: ATP 3 μM, peptide 60 nM, 30 minutes at room temperature. As for the experimental part:
as §1, §2, §3

Structures are written as SMILES.

T1 sequence (P52333 795-1124): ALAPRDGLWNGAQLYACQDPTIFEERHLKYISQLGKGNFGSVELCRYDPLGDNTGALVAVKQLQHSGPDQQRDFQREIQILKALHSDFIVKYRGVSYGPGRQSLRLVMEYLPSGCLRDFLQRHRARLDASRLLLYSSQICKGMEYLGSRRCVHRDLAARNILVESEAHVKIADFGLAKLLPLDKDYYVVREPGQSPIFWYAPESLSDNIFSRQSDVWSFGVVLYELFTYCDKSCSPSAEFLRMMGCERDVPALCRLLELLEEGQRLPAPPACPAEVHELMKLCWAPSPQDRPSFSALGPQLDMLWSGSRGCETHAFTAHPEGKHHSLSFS
T3 sequence (P23458 850-1154): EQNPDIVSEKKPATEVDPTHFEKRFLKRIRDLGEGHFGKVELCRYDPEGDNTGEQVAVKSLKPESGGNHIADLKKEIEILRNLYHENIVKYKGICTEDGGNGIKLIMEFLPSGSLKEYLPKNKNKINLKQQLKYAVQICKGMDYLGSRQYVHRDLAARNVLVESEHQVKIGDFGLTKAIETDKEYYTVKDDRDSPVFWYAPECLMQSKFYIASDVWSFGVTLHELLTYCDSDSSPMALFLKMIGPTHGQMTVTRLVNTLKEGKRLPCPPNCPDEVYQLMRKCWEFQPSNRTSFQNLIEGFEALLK
T2 sequence (O60674 826-1132): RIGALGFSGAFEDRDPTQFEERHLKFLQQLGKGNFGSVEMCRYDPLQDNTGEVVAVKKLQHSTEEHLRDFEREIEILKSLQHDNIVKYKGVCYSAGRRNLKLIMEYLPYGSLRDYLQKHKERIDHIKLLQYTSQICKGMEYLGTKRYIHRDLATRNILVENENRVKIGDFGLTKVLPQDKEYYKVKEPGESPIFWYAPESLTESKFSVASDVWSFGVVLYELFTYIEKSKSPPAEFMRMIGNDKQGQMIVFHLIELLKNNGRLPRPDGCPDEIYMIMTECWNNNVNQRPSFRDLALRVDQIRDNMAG

One may read the IC50 as the concentration needed to halve the response being measured. Lower therefore signals higher potency. In the case of `O=c1[nH]cccc1Nc1nccc(N[C@H]2CC[C@H](CS(=O)(=O)N3CCCC(O)C3)CC2)n1` (relative stereo) [Example 14, 3-({4-[(trans-4-{[(3-hydroxypiperidin-1-yl)sulfonyl]methyl}cyclohexyl)amino]pyrimidin-2-yl}amino)pyridin-2(1H)-one], the IC50 in assay [1] was 100 to 1000 nM; in assay [2], less than 100 nM; in assay [3] it was more than 1000 nM.

As for `COc1cnc(Nc2ccc[nH]c2=O)nc1N[C@@H](C)c1ccc(F)cn1` [Example 4, 3-[(4-{[(1S)-1-(5-fluoropyridin-2-yl)ethyl]amino}-5-methoxypyrimidin-2-yl)amino]pyridin-2(1H)-one], the half-inhibitory concentration (IC50) in assay [1], in assay [2] and in assay [3] was less than 100 nM throughout.

Consider `C[C@H](Nc1nc(Nc2ccc[nH]c2=O)ncc1O)c1ccc(F)cn1` [Example 5, 3-[(4-{[(1S)-1-(5-fluoropyridin-2-yl)ethyl]amino}-5-hydroxypyrimidin-2-yl)amino]pyridin-2(1H)-one], for which the concentration for half-maximal inhibition (IC50) in assay [1], in assay [2] and in assay [3] was less than 100 nM each time.

Turning to `C[C@H](Nc1nc(Nc2ccc[nH]c2=O)ncc1C(N)=O)c1ccc(F)cn1` [Example 6, (S)-4-(1-(5-fluoropyridin-2-yl)ethylamino)-2-(2-oxo-1,2-dihydropyridin-3-ylamino) pyrimidine-5-carboxamide], the IC50 in assay [1] is less than 100 nM; in assay [2] it was less than 100 nM; in assay [3], 100 to 1000 nM.

Take `Cc1cnc(Nc2cc(Cl)c[nH]c2=O)nc1N[C@@H](C)c1ccc(F)cn1` [Example 7, (S)-5-chloro-3-(4-(1-(5-fluoropyridin-2-yl)ethylamino)-5-methylpyrimidin-2-ylamino)pyridin-2(1H)-one]: the IC50 in assay [1], in assay [2] and in assay [3] was less than 100 nM throughout.

For `C[C@H](Nc1cncc(Nc2ccc[nH]c2=O)n1)c1ccc(F)cn1` [Example 11, 3-[(6-{[(1S)-1-(5-Fluoropyridin-2-yl)ethyl]amino}pyrazin-2-yl)amino]pyridin-2(1H)-one], the half-inhibitory concentration (IC50) in assay [1], in assay [2] and in assay [3] was less than 100 nM throughout.

As to `C[C@H](Nc1cccc(Nc2ccc[nH]c2=O)n1)c1ccc(F)cn1` [Example 12], the concentration for half-maximal inhibition (IC50) in assay [1] was less than 100 nM; in assay [2], less than 100 nM; in assay [3] it was 100 to 1000 nM.

Take `Cc1cnc(Nc2ccc[nH]c2=O)nc1N[C@H]1CC[C@H](CC#N)CC1` [Example 13, 2-((1r,4r)-4-(5-Methyl-2-(2-oxo-1,2-dihydropyridin-3-ylamino)pyrimidin-4-ylamino)cyclohexyl)acetonitrile]: the 50% inhibitory concentration (IC50) in assay [1], in assay [2] and in assay [3] was less than 100 nM throughout.

As to `N#CCC(=O)N1CCC[C@@H](Nc2nc(Nc3ccc[nH]c3=O)ncc2F)C1` [Example 17, (R)-3-(3-(5-Fluoro-2-(2-oxo-1,2-dihydropyridin-3-ylamino)pyrimidin-4-ylamino)piperidin-1-yl)-3-oxopropanenitrile], the IC50 in assay [1], in assay [2] and in assay [3] was less than 100 nM throughout.

With `O=c1[nH]cccc1Nc1ncc(F)c(N[C@@H]2CCCN(c3nnc[nH]3)C2)n1` [Example 18, (R)-3-(4-(1-(4H-1,2,4-Triazol-3-yl)piperidin-3-ylamino)-5-fluoropyrimidin-2-ylamino) pyridin-2(1H)-one], the results for the IC50 in assay [1], in assay [2] and in assay [3] were less than 100 nM, less than 100 nM and 100 to 1000 nM, respectively.

For the compound `N#CCC(=O)N1CCC[C@@H](Nc2nc(Nc3ccc[nH]c3=O)nc(N3CCOCC3)c2F)C1` [Example 20, 3-[(3R)-3-({5-fluoro-6-morpholin-4-yl-2-[(2-oxo-1,2-dihydropyridin-3-yl)amino]pyrimidin-4-yl}amino)piperidin-1-yl]-3-oxopropanenitrile], the IC50 in assay [1], in assay [2] and in assay [3] was less than 100 nM throughout.

With `Cc1c(Nc2ccc[nH]c2=O)nc(N[C@@H]2CCCN(C(=O)CC#N)C2)nc1N1CCOCC1` [Example 22, 3-[(3R)-3-({5-methyl-4-morpholin-4-yl-6-[(2-oxo-1,2-dihydropyridin-3-yl)amino]pyrimidin-2-yl}amino)piperidin-1-yl]-3-oxopropanenitrile], the IC50 in assay [1], in assay [2] and in assay [3] was less than 100 nM each time.

Values taken from patent US9034311B2, “Pyridin-2(1 H)-one derivatives as JAK inhibitors” (ALMIRALL, S.A., priority 2011, dated 2015).
